“And” between values parts separate entries of the source, which are not always exact repeats. Identical values can stand only once.
target: Mitogen-activated protein kinase kinase kinase kinase 1 (Homo sapiens, UniProt Q92918); experiment: HPK1-SLP76 TR-FRET ASSAY
Sequence (Q92918 whole entry): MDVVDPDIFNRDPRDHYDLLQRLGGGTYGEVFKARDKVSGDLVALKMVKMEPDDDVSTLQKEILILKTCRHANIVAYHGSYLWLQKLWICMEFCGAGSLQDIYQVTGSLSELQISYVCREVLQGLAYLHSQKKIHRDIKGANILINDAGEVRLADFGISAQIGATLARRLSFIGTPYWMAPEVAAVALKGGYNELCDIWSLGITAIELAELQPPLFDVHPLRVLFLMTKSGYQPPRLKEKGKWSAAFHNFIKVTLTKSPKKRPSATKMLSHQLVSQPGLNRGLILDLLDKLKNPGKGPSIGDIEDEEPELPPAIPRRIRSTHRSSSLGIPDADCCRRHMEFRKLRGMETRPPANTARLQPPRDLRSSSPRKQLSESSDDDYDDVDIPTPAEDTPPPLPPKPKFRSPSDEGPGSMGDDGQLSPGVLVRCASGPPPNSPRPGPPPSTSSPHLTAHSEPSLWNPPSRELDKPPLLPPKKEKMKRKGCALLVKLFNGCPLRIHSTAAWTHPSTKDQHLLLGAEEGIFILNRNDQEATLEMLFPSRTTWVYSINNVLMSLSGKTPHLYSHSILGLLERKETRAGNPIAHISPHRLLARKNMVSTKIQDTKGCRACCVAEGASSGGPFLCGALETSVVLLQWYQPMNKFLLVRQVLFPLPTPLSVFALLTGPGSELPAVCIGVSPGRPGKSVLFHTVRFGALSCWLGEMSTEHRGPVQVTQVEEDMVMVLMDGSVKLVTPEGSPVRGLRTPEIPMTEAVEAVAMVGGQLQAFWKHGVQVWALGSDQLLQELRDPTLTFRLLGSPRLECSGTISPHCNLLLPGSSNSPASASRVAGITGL

Row | Compound | IC50
1 | COc1cc2c(cc1Nc1ncc3ccc(N4CC5(CCCNCC5)OC4=O)cc3n1)CN(C)CC2 (centres undefined) [WO2022098806, Compound 3-5] | 205 nM and 93 nM
2 | COc1cc2c(cc1Nc1ncc3ccc(-c4cccc(C5CCC(=O)N5)c4)cc3n1)CN(C)CC2 (centres undefined) [WO2022098806, Compound 1-99] | 120 nM
3 | COc1cc2c(cc1Nc1ncc3ccc(NCC4(C)CCOC4)cc3n1)CN(C)CC2 (centres undefined) [WO2022098806, Compound 3-75] | 90 nM
4 | CC[C@@H]1COC(=O)N1c1cc(N)c2cnc(Nc3cc4c(cc3OC)CCN(C)C4)nc2c1 [WO2022098806, Compound 3-15] | 3.24 nM
5 | COc1cc2c(cc1Nc1ncc3ccc(Nc4ccc5c(c4)C(=O)NCC5)cc3n1)CN(C)CC2 [WO2022098806, Compound 3-21] | 30 nM
6 | CC[C@H]1COC(=O)N1c1cc(N)c2cnc(Nc3cc4c(cc3OC)CCN(C)C4)nc2c1 [WO2022098806, Compound 3-16] | 0.17 nM
7 | COc1cc2c(cc1Nc1ncc3ccc(Nc4cccc(C#N)n4)cc3n1)CN(C)CC2 [WO2022098806, Compound 3-27] | 23 nM
8 | CC[C@@H]1COC(=O)N1c1ccc2cnc(Nc3cc4c(cc3OC)CCN(C)C4)nc2c1 [WO2022098806, Compound 3-13] | 1.05 nM
9 | Cc1c(N)cncc1-c1cc2nc(Nc3ccc4c(c3)CN(C)CC43CC3)ncc2c(N)c1F [WO2022098806, Compound 2-153] | 0.05 nM
10 | COc1cc2c(cc1Nc1ncc3c(N)cc(N4C(=O)OC[C@@H]4C)cc3n1)CN(C)CC2 [WO2022098806, Compound 3-17] | 0.08 nM
11 | CNCC1CN(c2ccc3cnc(Nc4cc5c(cc4OC)CCN(C)C5)nc3c2)C(=O)O1 (centres undefined) [WO2022098806, Compound 3-12] | 94 nM
12 | CNC(=O)[C@H]1CCc2cc(Nc3ncc4cc(F)c(-c5cnc6c(c5C)NCCO6)cc4n3)ccc21 [WO2022098806, Compound 1-119] | 1.17 nM
13 | COc1cc2c(cc1Nc1ncc3ccc(Oc4ccc(C(=O)N5CCN(C(C)=O)CC5)cc4)cc3n1)CN(C)CC2 [WO2022098806, Compound 4-7] | 224 nM
14 | COc1cc2c(cc1Nc1ncc3ccc(Nc4cccc(CO)n4)cc3n1)CN(C)CC2 [WO2022098806, Compound 3-29] | 21 nM
15 | Cc1c(-c2cc3nc(Nc4ccc5c(c4)CN(C)CC5)ncc3c(N)c2F)cnc2c1NCC(C)(C)O2 [WO2022098806, Compound 2-166] | 0.06 nM
16 | COc1cc2c(cc1Nc1ncc3ccc(-c4cnn(CC(C)O)c4)cc3n1)CN(C)CC2 (centres undefined) [WO2022098806, Compound 1-102] | 22 nM
17 | COc1cc2c(cc1Nc1ncc3ccc(NCC4CCC(=O)N4)cc3n1)CN(C)CC2 (centres undefined) [WO2022098806, Compound 3-45] | 292 nM
18 | COc1cc2c(cc1Nc1ncc3ccc(N4CC(O)(C(F)(F)F)C4)cc3n1)CN(C)CC2 [WO2022098806, Compound 3-54] | 189 nM
19 | COc1cc2c(cc1Nc1ncc3ccc(-c4cncc(NS(C)(=O)=O)c4)cc3n1)CNCC2 [WO2022098806, Compound 1-36] | 183 nM
20 | CC[C@H]1COC(=O)N1c1ccc2cnc(Nc3cc4c(cc3OC)CCN(C)C4)nc2c1 [WO2022098806, Compound 3-14] | 25 nM
21 | COc1cc2c(cc1Nc1ncc3ccc(-c4cccc(NCC(C)=O)c4)cc3n1)CN(C)CC2 [WO2022098806, Compound 1-98] | 203 nM
22 | COc1cc2c(cc1Nc1ncc3c(N)c(F)c(-c4cnc5c(c4C)NCCO5)c(Cl)c3n1)CN(C(C)C)CC2 [WO2022098806, Compound 2-106] | 0.07 nM
23 | COc1cc2c(cc1Nc1ncc3ccc(NC[C@@H]4CC(=O)N(C)C4)cc3n1)CN(C)CC2 [WO2022098806, Compound 3-59] | 365 nM
24 | Cc1ccc(F)cc1-c1cc2nc(Nc3ccc4c(c3)CN(C)CC4)ncc2c(N)c1F [WO2022098806, Compound 2-174] | 11 nM
25 | Cc1c(-c2c(F)c(N)c3cnc(Nc4ccc5c(c4)CN(C)CC54CC4)nc3c2C#N)cnc2c1NCCO2 [WO2022098806, Compound 2-109] | 0.05 nM
26 | CNC(=O)C1(c2ccc(Nc3ncc4cc(F)c(-c5cnc6c(c5C)NCCO6)cc4n3)cc2)CCC1 [WO2022098806, Compound 1-121] | 0.26 nM
27 | COc1cc2c(cc1Nc1ncc3c(N)c(F)c(-c4ccccc4-c4ccnn4C)cc3n1)CN(C)CC2 [WO2022098806, Compound 2-65] | 17 nM
28 | COc1cc(S(C)(=O)=O)ccc1Nc1ncc2c(N)cc(N3C(=O)OC[C@H]3C)cc2n1 [WO2022098806, Compound 3-76] | 0.1 nM
29 | Cc1c(-c2cc3nc(Nc4ccc5c(c4)CN(C)CC5)ncc3c(N)c2F)cnc2nc[nH]c12 [WO2022098806, Compound 2-162] | 0.13 nM
30 | Cc1c(-c2c(F)c(N)c3cnc(Nc4ccc5c(c4)CN(C)CC54CC4)nc3c2Cl)cnc2c1NCCO2 [WO2022098806, Compound 2-108] | 0.01 nM

The next lines start with the values.

Row | IC50 | Compound
31 | 0.04 nM | Cc1c(-c2cc3nc(Nc4cnc5c(c4)CN(C)CC5)ncc3c(N)c2F)cnc2c1NCCO2 [WO2022098806, Compound 2-183]
32 | 865 nM | CC(=O)N1CCc2ccc(Nc3ncc4c(N)c(F)c(-c5cnc6c(c5C)NCCO6)cc4n3)cc2C1 [WO2022098806, Compound 2-12]
33 | 0.05 nM and 0.07 nM and 0.04 nM | Cc1c(-c2cc3nc(Nc4ccc(CS(C)(=O)=O)cc4)ncc3c(N)c2F)cnc2c1NCCO2 [WO2022098806, Compound 2-114]
34 | 0.05 nM | Cc1c(-c2cc3nc(Nc4ccc(N5CCOC5=O)cc4)ncc3c(N)c2F)cnc2c1NCCO2 [WO2022098806, Compound 2-67]
35 | 0.04 nM | CCS(=O)(=O)Cc1ccc(Nc2ncc3ccc(-c4cnc5c(c4C)NCCO5)cc3n2)cc1 [WO2022098806, Compound 1-134]
36 | 6.73 nM | CNC(=O)c1ccc(Nc2ncc3c(N)c(F)c(-c4cnc5c(c4C)NCCO5)c(Cl)c3n2)c(OC)c1 [WO2022098806, Compound 2-98]
37 | 0.1 nM and 0.45 nM and 0.09 nM | CCS(=O)(=O)Cc1ccc(Nc2ncc3c(N)c(F)c(-c4cnc5c(c4C)NCCO5)cc3n2)c(F)c1 [WO2022098806, Compound 2-125]
38 | 0.13 nM | CCc1ccc(Nc2ncc3c(N)c(F)c(-c4cnc5c(c4C)NCCO5)cc3n2)cn1 [WO2022098806, Compound 2-173]
39 | 0.03 nM | Cc1c(-c2cc3nc(Nc4ccc5c(c4)CN(C)C(C)(C)C5)ncc3c(N)c2F)cnc2c1NCCO2 [WO2022098806, Compound 2-128]
40 | 14 nM | COc1nc(C2(C#N)CC2)ccc1Nc1ncc2c(N)c(F)c(-c3cnc4c(c3C)NCCO4)cc2n1 [WO2022098806, Compound 2-68]
41 | 0.08 nM | Cc1c(-c2cc3nc(Nc4ccc([C@H]5CCN(C)C5=O)cc4)ncc3c(N)c2F)cnc2c1NCCO2 [WO2022098806, Compound 2-147]
42 | 0.08 nM | Cc1c(-c2cc3nc(Nc4ccc5c(c4)C(C)(C)OC5=O)ncc3c(N)c2F)cnc2c1NCCO2 [WO2022098806, Compound 2-41]
43 | 0.13 nM | Cc1c(-c2cc3nc(Nc4ccc(CC(=O)N(C)C)cc4)ncc3cc2F)cnc2c1NCCO2 [WO2022098806, Compound 1-132]
44 | 0.08 nM | Cc1c(-c2cc3nc(Nc4ccc5c(c4)CCS5(=O)=O)ncc3c(N)c2F)cnc2c1NCCO2 [WO2022098806, Compound 2-43]
45 | 0.04 nM | Cc1c(-c2cc3nc(Nc4ccc([S+](C)[O-])cc4)ncc3c(N)c2F)cnc2c1NCCO2 (centres undefined) [WO2022098806, Compound 2-170]
46 | 0.04 nM | Cc1c(-c2cc3nc(Nc4ccc([C@H](C)S(C)(=O)=O)cc4)ncc3cc2F)cnc2c1NCCO2 [WO2022098806, Compound 1-124]
47 | 0.05 nM | Cc1c(-c2cc3nc(Nc4ccc([C@@H]5CCN(C)C5=O)cc4)ncc3c(N)c2F)cnc2c1NCCO2 [WO2022098806, Compound 2-146]

Row | IC50 | Compound
48 | 0.16 nM | Cc1c(-c2cc3nc(Nc4ccc(CC(N)=O)cc4)ncc3cc2F)cnc2c1NCCO2 [WO2022098806, Compound 1-131]
49 | 0.05 nM | CNC(=O)c1ccc(Nc2ncc3c(N)c(F)c(-c4cnc5c(c4C)NCCO5)cc3n2)cc1 [WO2022098806, Compound 2-23]
50 | 0.08 nM | Cc1c(-c2cc3nc(Nc4cccc(S(C)(=O)=O)c4)ncc3c(N)c2F)cnc2c1NCCO2 [WO2022098806, Compound 2-14]
51 | 0.05 nM and 0.27 nM | Cc1c(-c2cc3nc(Nc4ccc5c(c4)CN(C)CC54CC4)ncc3c(N)c2F)cnc2c1NCCO2 [WO2022098806, Compound 2-151]
52 | 0.1 nM | Cc1c(-c2cc3nc(Nc4ccc(CS(=O)(=O)C5CC5)cc4)ncc3c(N)c2F)cnc2c1NCCO2 [WO2022098806, Compound 2-136]
53 | 0.27 nM | CNC(=O)c1ccc(Nc2ncc3c(N)c(F)c(-c4cnc5c(c4C)NCCO5)cc3n2)c(OC)c1 [WO2022098806, Compound 2-74]
54 | 0.15 nM | Cc1c(-c2cc3nc(Nc4ccc5c(c4)CN(CC(C)(C)O)C5=O)ncc3c(N)c2F)cnc2c1NCCO2 [WO2022098806, Compound 2-42]
55 | 0.11 nM | CC(=O)N1CCCc2cc(Nc3ncc4c(N)c(F)c(-c5cnc6c(c5C)NCCO6)cc4n3)ccc21 [WO2022098806, Compound 2-7]
56 | 0.03 nM | CNC(=O)C1(c2ccc(Nc3ncc4c(N)c(F)c(-c5cnc6c(c5C)NCCO6)cc4n3)cc2)CCC1 [WO2022098806, Compound 2-82]
57 | 0.68 nM | Cc1c(-c2cc3nc(Nc4ccc([C@@H](C)S(C)(=O)=O)cc4)ncc3cc2F)cnc2c1NCCO2 [WO2022098806, Compound 1-126]
58 | 0.1 nM | COc1cc2c(cc1Nc1ncc3c(N)c(F)c(-c4cnc5c(c4C)NCCO5)cc3n1)[C@H](C)N(C)CC2 [WO2022098806, Compound 2-36]
59 | 0.04 nM | Cc1c(-c2cc3nc(Nc4ccc5c(c4)CCN(C)CC5)ncc3c(N)c2F)cnc2c1NCCO2 [WO2022098806, Compound 2-119]
60 | 0.12 nM | CNS(=O)(=O)c1cccc(Nc2ncc3c(N)c(F)c(-c4cnc5c(c4C)NCCO5)cc3n2)c1 [WO2022098806, Compound 2-34]
61 | 0.12 nM | COc1cc2c(cc1Nc1ncc3c(N)c(F)c(-c4cnc5c(c4C)NCCO5)cc3n1)CN(C(C)C)CC2 [WO2022098806, Compound 2-72]
62 | 0.19 nM | Cc1c(-c2cc3nc(Nc4cccc(S(=O)(=O)NC(C)(C)C)c4)ncc3c(N)c2F)cnc2c1NCCO2 [WO2022098806, Compound 2-33]
63 | 0.4 nM | Cc1c(-c2c(F)c(N)c3cnc(Nc4ccc(CS(=O)(=O)C(C)C)cc4)nc3c2Cl)cnc2c1NCCO2 [WO2022098806, Compound 2-133]
64 | 0.03 nM | Cc1c(-c2cc3nc(Nc4ccc5c(c4)C4CC5CN4C)ncc3c(N)c2F)cnc2c1NCCO2 (centres undefined) [WO2022098806, Compound 2-79]
